{"source": "paper PMC4226674", "about": "“A phase I trial of the HIV protease inhibitor nelfinavir in adults with solid tumors” (Oncotarget, 2014)", "key": {"[1]": {"assay": "Nelfinavir plasma pharmacokinetics (HPLC-MS, noncompartmental)", "assay_type": "in vivo, human", "description": "To determine CYP3A4 phenotype, a single 3 mg oral dose of midazolam hydrochloride, a CYP3A4 substrate, was administered at day -2 (2 days prior to commencing nelfinavir) and again at steady state (cycle 1 day 20). Serial venous blood samples were collected at 15, 30, 60, 120, 180, 240, and 300 minutes following administration of midazolam. Nelfinavir pharmacokinetics (PK) were obtained after single dose administration, cycle 1 day 1, and again at steady state, cycle 2 day 1. Serial venous blood samples were collected pre-dose and at 1, 2, 3, 4, 5, 6 and 12 hours after administration. Plasma concentrations of midazolam and nelfinavir were determined with a validated assay employing high performance liquid chromatography (HPLC) with mass spectrometric detection. Noncompartmental pharmacokinetic analyses were performed with WinNonlin 5.2 (Pharsight). Individual concentration-time profiles were constructed for each patient, course and drug resulting in four profiles per patient (two each for midazolam and nelfinavir). The maximum plasma concentration (Cmax) and the time of maximum plasma concentration (Tmax) were the observed values. Drug exposure was estimated using the area under the concentration-time curve (AUC). The area under the concentration-time curve (AUC) from time zero to the time of the final quantifiable sample (AUClast) was calculated using the linear trapezoidal method. The area under the concentration-time curve from time zero to infinity (AUCinf) was calculated by extrapolation, using the terminal rate constant from the last measurable concentration."}, "[2]": {"biological_target": "T1, CYP3A4 (Homo sapiens, UniProt P08684)", "T1 construct": "To determine CYP3A4 phenotype, a single 3 mg oral dose of midazolam hydrochloride, a CYP3A4 substrate, was administered; from tissue; host or cells: in vivo, the patients' own (hepatic/intestinal) enzyme", "T1 sequence (P08684 whole entry)": "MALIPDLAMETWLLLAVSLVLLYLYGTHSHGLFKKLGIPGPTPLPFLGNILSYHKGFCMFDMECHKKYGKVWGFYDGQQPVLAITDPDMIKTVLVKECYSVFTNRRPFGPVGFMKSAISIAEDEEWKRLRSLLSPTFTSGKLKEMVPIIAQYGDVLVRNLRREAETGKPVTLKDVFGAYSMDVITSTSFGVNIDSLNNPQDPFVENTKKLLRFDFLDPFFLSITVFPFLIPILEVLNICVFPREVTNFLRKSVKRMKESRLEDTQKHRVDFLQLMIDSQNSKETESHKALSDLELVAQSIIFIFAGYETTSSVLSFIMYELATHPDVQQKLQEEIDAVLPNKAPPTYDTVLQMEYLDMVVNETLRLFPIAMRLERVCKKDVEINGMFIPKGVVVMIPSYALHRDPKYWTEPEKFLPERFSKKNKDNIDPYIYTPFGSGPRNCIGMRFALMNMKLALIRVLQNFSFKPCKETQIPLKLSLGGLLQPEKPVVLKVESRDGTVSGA", "assay": "CYP3A4 phenotyping with oral midazolam before and at nelfinavir steady state", "assay_type": "in vivo", "quoted_text": "To determine CYP3A4 phenotype, a single 3 mg oral dose of midazolam hydrochloride, a CYP3A4 substrate, was administered at day -2 (2 days prior to commencing nelfinavir) and again at steady state (cycle 1 day 20). Serial venous blood samples were collected at 15, 30, 60, 120, 180, 240, and 300 minutes following administration of midazolam. […] Plasma concentrations of midazolam and nelfinavir were determined with a validated assay employing high performance liquid chromatography (HPLC) with mass spectrometric detection. Noncompartmental pharmacokinetic analyses were performed with WinNonlin 5.2 (Pharsight). Individual concentration-time profiles were constructed for each patient, course and drug resulting in four profiles per patient (two each for midazolam and nelfinavir). The maximum plasma concentration (Cmax) and the time of maximum plasma concentration (Tmax) were the observed values. Drug exposure was estimated using the area under the concentration-time curve (AUC). The area under the concentration-time curve (AUC) from time zero to the time of the final quantifiable sample (AUClast) was calculated using the linear trapezoidal method. The area under the concentration-time curve from time zero to infinity (AUCinf) was calculated by extrapolation, using the terminal rate constant from the last measurable concentration."}, "[3]": {"system": "P-EIF2 alpha S51", "assay": "ER stress marker P-EIF2 alpha in PBMCs by immunoblotting", "assay_type": "in vivo, human", "settings": "DL4 (3125 mg bid), after 7 or 42 days; printed as 'the same percentage'", "quoted_text": "(§1) Peripheral blood mononuclear cells (PBMCs) were collected at baseline, and then twice after starting nelfinavir: cycle 1 day 7 and cycle 1 day 42. Levels of P-AKT S473, P-EIF2 alpha S51, ATF3 and CHOP in PBMCs before and after nelfinavir were analyzed by immunoblotting. Blood was collected in Vacutainer CPT collection tubes with sodium heparin (BD Biosciences cat# 362753) and mononuclear cells were isolated as per the manufacturer's instructions. PBMCs were washed with PBS and lysed in 2X LSB buffer [33], aliquotted and stored at -80°C. For analysis, equal amounts of protein per sample were run on 10-12% SDS-PAGE gels, then transferred onto nitrocellulose membranes. Membranes were blocked in 5% milk in TBS + 0.1% tween (TBST) and incubated with primary antibody diluted in 5% BSA in TBST at 4 degrees overnight. The next day membranes were washed, incubated with HRP-linked secondary antibody and developed using ECL chemiluminescent reagent (GE Healthcare) and X-ray film as per the manufacturers instructions. The amount of P-AKT S473, P-EIF2 alpha S51, ATF3 or CHOP in the PBMCs at C1D7 and C1D42 were compared against a baseline sample for each patient, (prior to receiving nelfinavir). Antibodies against P-AKT S473 #4060, P-EIF2 alpha S51 #3398 and β-Actin #4970 were from Cell Signaling Technology (Danvers, MA). […]"}, "[4]": {"system": "P-AKT S473, P-EIF2 alpha S51, ATF3, CHOP in PBMCs", "assay": "Surrogate biomarkers in PBMCs by immunoblotting", "assay_type": "in vivo, human", "description": "Blood was collected in Vacutainer CPT collection tubes with sodium heparin (BD Biosciences cat# 362753) and mononuclear cells were isolated as per the manufacturer's instructions. PBMCs were washed with PBS and lysed in 2X LSB buffer, aliquotted and stored at -80°C. For analysis, equal amounts of protein per sample were run on 10-12% SDS-PAGE gels, then transferred onto nitrocellulose membranes. Membranes were blocked in 5% milk in TBS + 0.1% tween (TBST) and incubated with primary antibody diluted in 5% BSA in TBST at 4 degrees overnight. The next day membranes were washed, incubated with HRP-linked secondary antibody and developed using ECL chemiluminescent reagent (GE Healthcare) and X-ray film as per the manufacturers instructions. […] Antibodies to CHOP sc-7351 and ATF3 sc-188 were from Santa Cruz Biotechnology (Santa Cruz, CA)."}, "[5]": {"system": "ATF3 and/or CHOP", "assay": "ER stress markers ATF3/CHOP in PBMCs by immunoblotting", "assay_type": "in vivo, human", "settings": "DL4 (3125 mg bid)", "quoted_text": "as §1"}, "[6]": {"system": "liposarcoma", "settings": "cited from earlier work"}, "[7]": {"settings": "Cycle 2 Day 1 steady state, 3125 mg bid, mean, n=6"}}, "note": "Where two headings read alike, the source gives them in different places.", "data": [{"compound": "Cc1c(O)cccc1C(=O)N[C@@H](CSc1ccccc1)[C@H](O)CN1C[C@H]2CCCC[C@H]2C[C@H]1C(=O)NC(C)(C)C", "note": "[nelfinavir, Nelfinavir]", "values": [{"measurement": "CL_F", "setting": "[1]; Cycle 1 Day 1, first oral dose 3125 mg, mean, n=10", "result": "49,020 mL/h"}, {"measurement": "CL_F", "setting": "[1]; [7]", "result": "59,826 mL/h"}, {"measurement": "Evening Trough", "setting": "[1]; [7]", "result": 2883, "unit": "ng/mL"}, {"measurement": "Morning Trough", "setting": "[1]; [7]", "result": 4597, "unit": "ng/mL"}, {"measurement": "doses above which PK showed potential non-linearity", "setting": "[1]; human, in vivo", "result": "1875 to 2500", "unit": "mg"}, {"measurement": "AUC(0-inf)", "setting": "[1]; human, in vivo, po, 1250 mg", "result": 24.5, "unit": "µg·h/mL"}, {"measurement": "AUC(0-t)", "setting": "[1]; human, in vivo, po, 1250 mg", "result": 16.6, "unit": "µg·h/mL"}, {"measurement": "CL_F", "setting": "[1]; human, in vivo, po, 1250 mg", "result": "52,714 mL/h"}, {"measurement": "Cmax", "setting": "[1]; human, in vivo, po, 1250 mg", "result": 2.39, "unit": "µg/mL"}, {"measurement": "Tmax", "setting": "[1]; human, in vivo, po, 1250 mg", "result": 3.7, "unit": "h"}, {"measurement": "half-life", "setting": "[1]; human, in vivo, po, 1250 mg", "result": 6.6, "unit": "h"}, {"measurement": "AUC(0-inf)", "setting": "[1]; human, in vivo, po, 1875 mg", "result": 189, "unit": "µg·h/mL"}, {"measurement": "AUC(0-t)", "setting": "[1]; human, in vivo, po, 1875 mg", "result": 73.9, "unit": "µg·h/mL"}, {"measurement": "CL_F", "setting": "[1]; human, in vivo, po, 1875 mg", "result": "21,034 mL/h"}, {"measurement": "Cmax", "setting": "[1]; human, in vivo, po, 1875 mg", "result": 10.4, "unit": "µg/mL"}, {"measurement": "Tmax", "setting": "[1]; human, in vivo, po, 1875 mg", "result": 3.8, "unit": "h"}, {"measurement": "half-life", "setting": "[1]; human, in vivo, po, 1875 mg", "result": 11.9, "unit": "h"}, {"measurement": "AUC(0-inf)", "setting": "[1]; human, in vivo, po, 2500 mg", "result": 79.4, "unit": "µg·h/mL"}, {"measurement": "AUC(0-t)", "setting": "[1]; human, in vivo, po, 2500 mg", "result": 61, "unit": "µg·h/mL"}, {"measurement": "CL_F", "setting": "[1]; human, in vivo, po, 2500 mg", "result": "55,342 mL/h"}, {"measurement": "Tmax", "setting": "[1]; human, in vivo, po, 2500 mg", "result": 6, "unit": "h"}, {"measurement": "half-life", "setting": "[1]; human, in vivo, po, 2500 mg", "result": 4.5, "unit": "h"}, {"measurement": "AUC(0-inf)", "setting": "[1]; human, in vivo, po, 3750 mg", "result": 131, "unit": "µg·h/mL"}, {"measurement": "AUC(0-t)", "setting": "[1]; human, in vivo, po, 3750 mg", "result": 61.5, "unit": "µg·h/mL"}, {"measurement": "CL_F", "setting": "[1]; human, in vivo, po, 3750 mg", "result": "52,114 mL/h"}, {"measurement": "Cmax", "setting": "[1]; human, in vivo, po, 3750 mg", "result": 7.92, "unit": "µg/mL"}, {"measurement": "Tmax", "setting": "[1]; human, in vivo, po, 3750 mg", "result": 2.7, "unit": "h"}, {"measurement": "half-life", "setting": "[1]; human, in vivo, po, 3750 mg", "result": 9.2, "unit": "h"}, {"measurement": "Cmax", "setting": "[1]; human, in vivo, Cycle 1 Day 1, first oral dose 2500 mg, mean, n=3, read-out: Cmax", "result": 9.74, "unit": "µg/mL"}, {"measurement": "AUC(0-inf)", "setting": "[1]; human, in vivo, Cycle 1 Day 1, first oral dose 3125 mg, mean, n=10, read-out: AUCinf", "result": 140, "unit": "µg·h/mL"}, {"measurement": "half-life", "setting": "[1]; human, in vivo, Cycle 1 Day 1, first oral dose 3125 mg, mean, n=10, read-out: T1/2 (converted)", "result": 9.2, "unit": "h"}, {"measurement": "AUC(0-t)", "setting": "[1]; human, in vivo, Cycle 1 Day 1, first oral dose 3125 mg, mean, n=13, read-out: AUClast", "result": 56.9, "unit": "µg·h/mL"}, {"measurement": "Cmax", "setting": "[1]; human, in vivo, Cycle 1 Day 1, first oral dose 3125 mg, mean, n=13, read-out: Cmax", "result": 7.64, "unit": "µg/mL"}, {"measurement": "Tmax", "setting": "[1]; human, in vivo, Cycle 1 Day 1, first oral dose 3125 mg, mean, n=13, read-out: Tmax", "result": 4.8, "unit": "h"}, {"measurement": "Cmax", "setting": "[1]; human, in vivo, Cycle 2 Day 1 steady state, 3125 mg bid, mean, n=7, read-out: Cmax", "result": 9.55, "unit": "µg/mL"}, {"measurement": "Tmax", "setting": "[1]; human, in vivo, Cycle 2 Day 1 steady state, 3125 mg bid, mean, n=7, read-out: Tmax", "result": 3.3, "unit": "h"}, {"measurement": "AUC(0-t)", "setting": "[1]; human, in vivo, Cycle 2 Day 1 steady state, 3125 mg bid, mean, read-out: AUClast", "result": 60, "unit": "µg·h/mL"}, {"measurement": "change of overall exposure or maximal plasma concentration with dose", "setting": "[1]; in vivo", "result": "No increase"}, {"measurement": "dose linearity of first dose pharmacokinetics", "setting": "[1]; in vivo, po", "result": "Non-linear pharmacokinetics"}, {"measurement": "change in midazolam clearance", "setting": "[2]; day 20 (nelfinavir steady state) vs pre-nelfinavir (D-2), 3 mg oral midazolam, 19 subjects, p<0.001", "result": "significant decrease"}, {"measurement": "change in midazolam exposure and half-life", "setting": "[2]; day 20 vs pre-nelfinavir, p<0.05 for each, data not shown", "result": "significant increase"}, {"measurement": "subject PBMCs showing an increase in P-EIF2 alpha S51", "setting": "[3]", "result": 45, "unit": "%"}, {"measurement": "biomarker changes in PBMCs from baseline", "setting": "[4]; DL1 or DL2 (1250, 1875 mg bid)", "result": "no biomarker changes"}, {"measurement": "subjects with decrease in P-AKT S473 or increase in EIF2 alpha S51 phosphorylation", "setting": "[4]; DL3 (2500 mg bid)", "result": "1 out of 3"}, {"measurement": "subjects showing changes in 3 of 4 biomarkers evaluated", "setting": "[4]; DL4 (3125 mg bid)", "result": 3}, {"measurement": "effect on markers of ER stress in peripheral blood mononuclear cells", "setting": "[4]; in vivo", "result": "induced markers of ER stress"}, {"measurement": "samples showing an increase in ATF3 and/or CHOP", "setting": "[5]", "result": 27, "unit": "%"}, {"measurement": "MTD in liposarcoma patients", "setting": "[6]; Phase I trial", "result": "MTD was not reached"}, {"measurement": "dose above which PK non-linearity was found", "setting": "[6]; liposarcoma patients", "result": "above 3000 mg bid"}, {"measurement": "dose at which auto-induction was noted (highest dose evaluated)", "setting": "[6]; liposarcoma patients", "result": 4125, "unit": "mg BID"}]}]}
